Experiments:
[1] = biological target: T1, human B1R (Homo sapiens, UniProt P46663); assay: Functional investigation on the bradykinin 1 receptor (B1R), cell-based fluorescent calcium-mobilization assay (FLIPR/Novostar), human; conditions: 10 μM test substance; CHO K1 cells stably transfected with human B1R gene; agonist Lys-Des-Arg9-bradykinin at EC80; % inhibition compared with maximum achievable inhibition; read-out: B1R antagonism, human [10 μM] % inhibition
T1 construct: expressed in transfected cells; host or cells: CHO K1 cells
T1 sequence (P46663 1-353): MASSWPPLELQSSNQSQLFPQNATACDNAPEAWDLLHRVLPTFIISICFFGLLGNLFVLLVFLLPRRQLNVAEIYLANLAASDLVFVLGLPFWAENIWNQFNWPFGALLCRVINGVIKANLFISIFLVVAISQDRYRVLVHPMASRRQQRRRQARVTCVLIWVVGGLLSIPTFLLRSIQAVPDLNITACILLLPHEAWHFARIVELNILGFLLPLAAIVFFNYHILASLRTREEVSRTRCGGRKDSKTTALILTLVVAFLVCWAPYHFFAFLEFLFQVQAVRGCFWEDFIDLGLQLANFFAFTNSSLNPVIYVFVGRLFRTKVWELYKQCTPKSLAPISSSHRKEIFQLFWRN
Method: (§1) The agonistic or antagonistic action of substances can be quantified on the bradykinin 1 receptor (B1R) of the human and rat species with ectopically expressing cell lines (CHO K1 cells) and with the aid of a Ca^2+-sensitive dyestuff (Fluo-4) in a fluorescent imaging plate reader (FLIPR). The figure in % activation is based on the Ca^2+ signal after addition of Lys-Des-Arg^9-bradykinin (0.5 nM) or Des-Arg^9-bradykinin (100 nM). Antagonists lead to a suppression of the Ca^2+ inflow after addition of the agonist. % inhibition compared with the maximum achievable inhibition is stated.
(§2) The agonistic or antagonistic action of substances can be determined on the bradykinin 1 receptor (B1R) of humans and rats by means of a cell-based flourescent calcium-mobilization assay. According to this assay agonist-induced increase of intracellular free Ca^2+ is quantified by means of a Ca^2+-sensitive dye (Fluo-4 type, Molecular Probes Europe BV, Leiden, Netherlands), in a Fluorescent Imaging Plate Reader (FLIPR, Molecular Devices, Sunnyvale, USA) and/or the Novostar (BMG Labtech GmbH, Offenburg, Germany).
(§3) Chinese hamster ovary cells (CHO K1 cells), which are stably transfected with the human B1R gene (hB1R cells) or with the B1R gene of rats (rB1R cells), are used. For functional investigations these cells are seeded into black 96-well plates with a clear bottom (BD Biosciences, Heidelberg, Germany or Greiner, Frickenhausen, Germany) in a density of 20,000-35,000 cells/well. The cells are incubated overnight in a humidified atmosphere at 37° C. and 5% CO2 in culture medium (hB1R cells: Nutrient Mixture Ham's F12, Gibco Invitrogen GmbH, Karlsruhe, Germany or DMEM, Sigma-Aldrich, Taufkirchen, Germany; rB1R cells: D-MEM/F12, Gibco Invitrogen GmbH, Karlsruhe, Germany) with 10 vol. % FBS (foetal bovine serum, Gibco Invitrogen GmbH, Karlsruhe, Germany).
(§4) On the following day the cells are loaded with the Ca^2+-sensitive dye Fluo-4-AM (Molecular Probes Europe BV, Leiden, Netherlands):
(§5) Method A: The medium of the cells is removed and cell plates are incubated with loading solution, which contains 2.13 μM Fluo-4-AM, 2.5 mM probenecid (Sigma-Aldrich, Taufkirchen, Germany), and 10 mM HEPES (Sigma-Aldrich, Taufkirchen, Germany) in HBSS buffer (Hank's buffered saline solution, Gibco Invitrogen GmbH, Karlsruhe, Germany) for 60 minutes at 37° C. After the plates are washed twice with HBSS buffer, HBSS buffer supplemented 0.1% BSA (bovine serum albumin; Sigma-Aldrich, Taufkirchen, Germany), 5.6 mM glucose and 0.05% gelatine (Merck KGaA, Darmstadt, Germany) is added. Cell plates are incubated for at least 20 minutes in the dark at room temperature before they are used for the Ca^2+ measurement in the FLIPR or Novostar.
(§6) Method B: The plates are washed with buffer A (15 mM HEPES, 80 mM NaCl, 5 mM KCl, 1.2 mM CaCl2, 0.7 mM MgSO4, 2 mg/ml glucose, 2.5 mM probenecid) and subsequently loaded with buffer A containing 2.4 μM Fluo-4-AM and 0.025% pluronic F127 (Sigma-Aldrich, Taufkirchen, Germany) for 60 minutes at 37° C. Cell plates are washed twice with buffer A. Then, buffer A supplemented with 0.05% BSA and 0.05% gelatine is added and cell plates are incubated in the dark at room temperature for at least 20 minutes before measurement in the FLIPR or Novostar is started.
(§7) The Ca^2+-dependent fluorescence is measured both before and after the addition of substances (λex=488 nm, λem=540 nm). For quantification of the effect the highest fluorescence intensity (FC, fluorescence counts) over time is given. The FLIPR protocol consists of two substance additions, done within the instrument while continuously monitoring the Ca^2+-dependent fluorescence at 540 nm. When the Novostar was used, one addition had to be done outside the instrument. Test substances (10 μM) are initially pipetted onto the cells and the intracellular Ca^2+ rise is compared with the control (hB1R: Lys-Des-Arg9-bradykinin>=50 nM; rB1R: Des-Arg9-bradykinin>=1 μM). […]

[2] = biological target: T2, B1R of rats (Rattus norvegicus, UniProt P97583); assay: Functional investigation on the bradykinin 1 receptor (B1R), cell-based fluorescent calcium-mobilization assay (FLIPR/Novostar), rat; conditions: 10 μM test substance; CHO K1 cells stably transfected with rat B1R gene; agonist Des-Arg9-bradykinin at EC80; % inhibition compared with maximum achievable inhibition; read-out: B1R antagonism, rat [10 μM] % inhibition
T2 construct: expressed in transfected cells; host or cells: CHO K1 cells
T2 sequence (P97583 1-337): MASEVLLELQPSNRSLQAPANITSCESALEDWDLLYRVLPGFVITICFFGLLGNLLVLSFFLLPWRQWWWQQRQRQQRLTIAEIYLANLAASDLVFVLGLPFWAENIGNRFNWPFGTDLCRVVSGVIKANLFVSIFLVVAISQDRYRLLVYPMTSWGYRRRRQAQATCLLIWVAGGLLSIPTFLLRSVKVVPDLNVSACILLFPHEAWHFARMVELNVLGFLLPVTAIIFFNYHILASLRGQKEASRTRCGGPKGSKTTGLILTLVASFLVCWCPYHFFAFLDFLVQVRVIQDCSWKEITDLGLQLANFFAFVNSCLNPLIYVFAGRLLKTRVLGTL
Method: as §1, §2, §3, §4, §5, §6, §7

## CN1CCN(C2(CNC(=O)c3ccncc3)CCN(C(=O)COCC3CCc4ccccc4N3S(=O)(=O)c3ccc(Cl)c(Cl)c3)CC2)CC1 (stereo not shown) [Example 30, N-((1-(2-((1-(3,4-dichlorophenylsulfonyl)-1,2,3,4-tetrahydroquinolin-2-yl)methoxy)acetyl)-4-(4-methylpiperazin-1-yl)piperidin-4-yl)methyl)-isonicotinamide]
[1]
  inhibition at 10 µM: 100%
[2]
  inhibition at 10 µM: 80%

## COc1cc(C)c(S(=O)(=O)N2CCCCC2CCOCC(=O)N2CCC(CNC(=O)c3ccncc3)(N3CCN(C)CC3)CC2)c(C)c1 (stereo not shown) [Example 53, N-((1-(2-(2-(1-(4-Methoxy-2,6-dimethylphenylsulfonyl)piperidin-2-yl)ethoxy)acetyl)-4-(4-methylpiperazin-1-yl)piperidin-4-yl)methyl)isonicotinamide]
[2]
  inhibition at 10 µM: 102%

## CC(=O)NCC1(N2CCN(c3ccncc3)CC2)CCN(C(=O)CC2CCCCN2S(=O)(=O)c2cccc(C(F)(F)F)c2)CC1 (stereo not shown) [Example 36, N-((4-(4-(pyridin-4-yl)piperazin-1-yl)-1-(2-(1-(3-(trifluoromethyl)phenyl-sulfonyl)piperidin-2-yl)acetyl)piperidin-4-yl)methyl)acetamide]
[1]
  inhibition at 10 µM: 99%
[2]
  inhibition at 10 µM: 101%

## CC(=O)NCC1(N2CCN(C)CC2)CCN(C(=O)CC(NS(=O)(=O)c2ccc3ccccc3c2)c2ccccc2)CC1 (stereo not shown) [Example 35, N-((4-(4-methylpiperazin-1-yl)-1-(3-(naphthalene-2-sulfonamido)-3-phenylpropanoyl)piperidin-4-yl)methyl)acetamide]
[1]
  inhibition at 10 µM: 89%
[2]
  inhibition at 10 µM: 102%

## COc1cc(C)c(S(=O)(=O)N(C)CCOCC(=O)N2CCC(CNC(C)=O)(N3CCN(c4ccncc4)CC3)CC2)c(C)c1 [Example 41, N-((1-(2-(2-(4-methoxy-N,2,6-trimethylphenylsulfonamido)ethoxy)acetyl)-4-(4-(pyridin-4-yl)piperazin-1-yl)piperidin-4-yl)methyl)acetamide]
[1]
  inhibition at 10 µM: 100%
[2]
  inhibition at 10 µM: 102%

## CC(=O)NCC1(N2CCN(C)CC2)CCN(C(=O)COCC2CCc3ccccc3N2S(=O)(=O)c2ccc(Cl)c(Cl)c2)CC1 (stereo not shown) [Example 7, N-((1-(2-((1-(3,4-dichlorophenylsulfonyl)-1,2,3,4-tetrahydroquinolin-2-yl)methoxy)acetyl)-4-(4-methylpiperazin-1-yl)piperidin-4-yl)methyl)acetamide]
[1]
  inhibition at 10 µM: 102%
[2]
  inhibition at 10 µM: 105%

## CC(=O)NCC1(N2CCN(C)CC2)CCN(C(=O)CCC2CCCCN2S(=O)(=O)c2cc(C)c(Cl)cc2C)CC1 (stereo not shown) [Example 2, N-((1-(3-(1-(4-chloro-2,5-dimethylphenylsulfonyl)piperidin-2-yl)propanoyl)-4-(4-methylpiperazin-1-yl)piperidin-4-yl)methyl)acetamide]
[1]
  inhibition at 10 µM: 81%
[2]
  inhibition at 10 µM: 74%

## CN1CCN(C2(CNC(=O)c3ccccc3)CCN(C(=O)COCC3CCc4ccccc4N3S(=O)(=O)c3ccc(Cl)c(Cl)c3)CC2)CC1 (stereo not shown) [Example 23, N-((1-(2-((1-(3,4-dichlorophenylsulfonyl)-1,2,3,4-tetrahydroquinolin-2-yl)methoxy)acetyl)-4-(4-methylpiperazin-1-yl)piperidin-4-yl)methyl)benzamide]
[1]
  inhibition at 10 µM: 99%
[2]
  inhibition at 10 µM: 54%

## Cc1cc(S(=O)(=O)N2CCCCC2CCC(=O)N2CCC(CNC(=O)c3ccncc3)(N3CCN(C)CC3)CC2)c(C)cc1Cl (stereo not shown) [Example 26, N-((1-(3-(1-(4-chloro-2,5-dimethylphenylsulfonyl)piperidin-2-yl)propanoyl)-4-(4-methylpiperazin-1-yl)piperidin-4-yl)methyl)isonicotinamide]
[1]
  inhibition at 10 µM: 103%
[2]
  inhibition at 10 µM: 45%

## Cc1cccc(Cl)c1S(=O)(=O)N(CCOCC(=O)N1CCC(CNC(=O)c2ccncc2)(N2CCN(C3CC3)CC2)CC1)C1CC1 [Example 43, N-((1-(2-(2-(2-Chloro-N-cyclopropyl-6-methylphenylsulfonamido)ethoxy)-acetyl)-4-(4-cyclopropylpiperazin-1-yl)piperidin-4-yl)methyl)-isonicotinamide]
[1]
  inhibition at 10 µM: 100%
[2]
  inhibition at 10 µM: 103%

## CN1CCN(C2(CNC(=O)c3ccncc3)CCN(C(=O)CC(NS(=O)(=O)c3ccc4ccccc4c3)c3ccccc3)CC2)CC1 (stereo not shown) [Example 37, N-((4-(4-methylpiperazin-1-yl)-1-(3-(naphthalene-2-sulfonamido)-3-phenylpropanoyl)piperidin-4-yl)methyl)isonicotinamide]
[1]
  inhibition at 10 µM: 46%
[2]
  inhibition at 10 µM: 71%

## CN1CCN(C2(CNC(=O)c3ccccn3)CCN(C(=O)CC3CCCCN3S(=O)(=O)c3cccc(C(F)(F)F)c3)CC2)CC1 (stereo not shown) [Example 18, N-((4-(4-methylpiperazin-1-yl)-1-(2-(1-(3-(trifluoromethyl)phenylsulfonyl)-piperidin-2-yl)acetyl)piperidin-4-yl)methyl)picolinamide]
[1]
  inhibition at 10 µM: 97%
[2]
  inhibition at 10 µM: 17%

## COc1cc(C)c(S(=O)(=O)N(C)CCOCC(=O)N2CCC(CNC(=O)c3ccccc3)(N3CCN(C)CC3)CC2)c(C)c1 [Example 24, N-((1-(2-(2-(4-methoxy-N,2,6-trimethylphenylsulfonamido)ethoxy)acetyl)-4-(4-methylpiperazin-1-yl)piperidin-4-yl)methyl)benzamide]
[1]
  inhibition at 10 µM: 103%
[2]
  inhibition at 10 µM: 101%

## CN1CCN(C2(CNC(=O)Cc3ccccc3)CCN(C(=O)COCC3CCc4ccccc4N3S(=O)(=O)c3ccc(Cl)c(Cl)c3)CC2)CC1 (stereo not shown) [Example 13, N-((1-(2-((1-(3,4-dichlorophenylsulfonyl)-1,2,3,4-tetrahydroquinolin-2-yl)methoxy)acetyl)-4-(4-methylpiperazin-1-yl)piperidin-4-yl)methyl)-2-phenylacetamide]
[1]
  inhibition at 10 µM: 104%
[2]
  inhibition at 10 µM: 52%

## CN1CCN(C2(CNC(=O)c3ccncc3)CCN(C(=O)CCCN(C)S(=O)(=O)c3cccc(C(F)(F)F)c3)CC2)CC1 [Example 54, N-((1-(4-(N-Methyl-3-(trifluoromethyl)phenylsulfonamido)butanoyl)-4-(4-methylpiperazin-1-yl)piperidin-4-yl)methyl)isonicotinamide]
[2]
  inhibition at 10 µM: 66%

Source: patent US8541573B2, “Substituted sulfonamide compounds” (Gruenenthal GmbH, priority 2008, dated 2013)
